Measurements reported in ChEMBL document CHEMBL3407427, “Discovery of efficacious Pseudomonas aeruginosa-targeted siderophore-conjugated monocarbams by application of a semi-mechanistic pharmacokinetic/pharmacodynamic model” (J Med Chem, 2015).
Converted amounts (≈) assume the structure as drawn.

Columns and labels:
[1] = tested on: Pseudomonas aeruginosa; experiment: Antimicrobial activity against MexABCDXY-deficient Pseudomonas aeruginosa PAO1 ARC546 by broth microdilution method; assay type: functional
[2] = tested on: Pseudomonas aeruginosa; experiment: Antimicrobial activity against Pseudomonas aeruginosa PAO1 ARC545 by broth microdilution method; assay type: functional
[3] = tested on: Pseudomonas aeruginosa; experiment: Inhibition of Pseudomonas aeruginosa PBP3 acylation activity by BOCILLIN FL-based assay
[4] = Percentage unbound in human plasma at 10 uM after 16 hrs by LC-MS/MS analysis
[5] = Half life in PBS buffer in pH 7.4 by UPLC analysis; assay type: ADME
[6] = Clearance in Wistar Han rat at 1 mg/kg, iv infusion; assay type: ADME, organism-based; set-up: dose 1 mg/kg, route intravenous; settings: in vivo
[7] = tested on: Pseudomonas aeruginosa; experiment: Antimicrobial activity against Pseudomonas aeruginosa by broth microdilution method; assay type: functional
[8] = tested on: Escherichia coli; experiment: Antimicrobial activity against Escherichia coli by broth microdilution method; assay type: functional
[9] = tested on: Klebsiella pneumoniae; experiment: Antimicrobial activity against Klebsiella pneumoniae by broth microdilution method; assay type: functional
[10] = tested on: Acinetobacter baumannii; experiment: Antimicrobial activity against Acinetobacter baumannii by broth microdilution method; assay type: functional
[11] = Plasma protein binding in Wistar Han rat as percentage unbound
[12] = Half life in Wistar Han rat at 1 mg/kg, iv infusion; assay type: ADME, organism-based; set-up: dose 1 mg/kg, route intravenous; settings: in vivo
[13] = Volume of distribution at steady state in Wistar Han rat at 1 mg/kg, iv infusion; assay type: ADME, organism-based; set-up: dose 1 mg/kg, route intravenous; settings: in vivo, read-out: Vdss

SMILES | MIC [1] [µg/mL] | MIC [2] [µg/mL] | Kinact [3] | fraction unbound at 16 h, 10 µM [4] | half-life [5] [h] | clearance [6] [mL/min/kg] | MIC90 [7] [µg/mL] | MIC90 [8] [µg/mL] | MIC90 [9] [µg/mL] | MIC90 [10] [µg/mL] | fraction unbound [11] | half-life [12] [h] | Vd [13] [L/kg]
C[C@H]1[C@H](NC(=O)/C(=N\OC(C)(C)C(=O)O)c2csc(N)n2)C(=O)N1C(=O)NS(=O)(=O)N1C[C@@H](NC(=O)c2cc(=O)c(O)c[nH]2)CC1=O | < 0.06 | 1 (≈ 1.43 µM) | 1.5 ×10⁵ /M/s | 0.24 | > 150 | 16 | 2 (≈ 2.87 µM) | 32 (≈ 45.9 µM) | 32 (≈ 45.9 µM) | > 64 | 0.06 | 0.34 | 0.44
C[C@H]1[C@H](NC(=O)/C(=N\OC(C)(C)C(=O)O)c2csc(N)n2)C(=O)N1C(=O)NS(=O)(=O)Nc1cc(=O)c(O)c[nH]1 | 1 (≈ 1.7 µM) | 16 (≈ 27.3 µM) | 1.3 ×10⁴ /M/s | 0.23 | 103 |  |  |  |  |  |  |  | 
C[C@H]1[C@H](NC(=O)/C(=N\OC(C)(C)C(=O)O)c2csc(N)n2)C(=O)N1C(=O)NS(=O)(=O)N1C[C@@H](NC(=O)NCc2cc(=O)c(O)cn2O)CC1=O | < 0.06 | 0.5 (≈ 0.673 µM) | 5.9 ×10⁴ /M/s | 0.26 | 87 | 9 | 2 (≈ 2.69 µM) | 16 (≈ 21.5 µM) | 32 (≈ 43.1 µM) | > 128 | 0.29 | 0.49 | 0.29
CC(C)(O/N=C(\C(=O)NC1CN(C(=O)NS(=O)(=O)N2CCN(NC(=O)c3cc(=O)c(O)c[nH]3)C2=O)C1=O)c1csc(N)n1)C(=O)O (configuration not stated) [PIRAZMONAM] | 0.06 (≈ 0.0876 µM) | 0.25 (≈ 0.365 µM) | 1.4 ×10⁵ /M/s | 0.29 | 41 |  |  |  |  |  |  |  | 
C[C@H]1[C@H](NC(=O)/C(=N\OC(C)(C)C(=O)O)c2csc(N)n2)C(=O)N1C(=O)NS(=O)(=O)N1C[C@@H](NC(=O)CNC(=O)c2cc(=O)c(O)cn2O)CC1=O | < 0.06 | 0.5 (≈ 0.649 µM) | 1 ×10⁵ /M/s | 0.45 | > 150 |  |  |  |  |  |  |  | 
C[C@H]1[C@H](NC(=O)/C(=N\OC(C)(C)C(=O)O)c2csc(N)n2)C(=O)N1C(=O)NS(=O)(=O)N1C[C@@H](NC(=O)CNC(=O)c2cc(=O)c(O)c[nH]2)CC1=O | 0.25 (≈ 0.331 µM) | 2 (≈ 2.65 µM) | 2.4 ×10⁴ /M/s | 0.38 | > 150 |  |  |  |  |  |  |  | 
C[C@H]1[C@H](NC(=O)/C(=N\OCC(=O)O)c2csc(N)n2)C(=O)N1C(=O)NS(=O)(=O)N1C[C@@H](NC(=O)NCc2cc(=O)c(O)cn2O)CC1=O | 0.13 (≈ 0.182 µM) | 4 (≈ 5.6 µM) | 3.4 ×10³ /M/s | 0.26 | 87 |  |  |  |  |  |  |  | 
C[C@H]1[C@H](NC(=O)/C(=N\OC(C)(C)C(=O)O)c2csc(N)n2)C(=O)N1C(=O)NS(=O)(=O)N1CC[C@H](NC(=O)c2cc(=O)c(O)c[nH]2)C1 | < 0.06 | 1 (≈ 1.46 µM) | 4.6 ×10⁴ /M/s | 0.33 | > 150 |  |  |  |  |  |  |  | 
C[C@H]1[C@H](NC(=O)/C(=N\OC(C)(C)C(=O)O)c2csc(N)n2)C(=O)N1C(=O)NS(=O)(=O)N1CCN(C(=O)c2cc(=O)c(O)c[nH]2)N(C)C1=O | < 0.06 | 1 (≈ 1.4 µM) | 2.6 ×10⁴ /M/s | 0.14 | 38 | 12 | 2 (≈ 2.81 µM) | 64 (≈ 89.8 µM) | 64 (≈ 89.8 µM) | > 128 | 0.15 | 0.37 | 0.42
CC(C)(O/N=C(\C(=O)N[C@@H]1C(=O)N(C(=O)NS(=O)(=O)N2C[C@@H](NC(=O)NCc3cc(=O)c(O)cn3O)CC2=O)C1(C)C)c1csc(N)n1)C(=O)O | 1 (≈ 1.32 µM) | 8 (≈ 10.6 µM) | 8.1 ×10² /M/s | 0.23 | > 150 |  |  |  |  |  |  |  | 
C[C@H]1[C@H](NC(=O)/C(=N\OC(C)(C)C(=O)O)c2csc(N)n2)C(=O)N1C(=O)NS(=O)(=O)N1CCN(C(=O)c2cc(=O)c(O)c[nH]2)CC1 | < 0.06 | 8 (≈ 11.7 µM) | 2.4 ×10⁴ /M/s | 0.26 | > 150 |  |  |  |  |  |  |  | 
C[C@H]1[C@H](NC(=O)/C(=N\OC(C)(C)C(=O)O)c2csc(N)n2)C(=O)N1C(=O)NS(=O)(=O)N1C[C@@H](NCc2cc(=O)c(O)c[nH]2)CC1=O | 0.5 (≈ 0.731 µM) | 8 (≈ 11.7 µM) | 5.7 ×10⁴ /M/s | 0.4 | 48 |  |  |  |  |  |  |  | 
C[C@H]1[C@H](NC(=O)/C(=N\OC(C)(C)C(=O)O)c2csc(N)n2)C(=O)N1C(=O)NS(=O)(=O)NCc1cc(=O)c(O)c[nH]1 | < 0.06 | 8 (≈ 13.3 µM) | 2.5 ×10⁴ /M/s | 0.61 | > 150 |  |  |  |  |  |  |  | 
C[C@H]1[C@H](NC(=O)/C(=N\OC(C)(C)C(=O)O)c2csc(N)n2)C(=O)N1C(=O)NS(=O)(=O)N1C[C@@H](NC(=O)c2cc(=O)c(O)cn2O)CC1=O | < 0.06 | 0.5 (≈ 0.701 µM) | 3 ×10⁵ /M/s | 0.08 | > 150 |  |  |  |  |  |  |  | 
C[C@H]1[C@H](NC(=O)/C(=N\OC(C)(C)C(=O)O)c2csc(N)n2)C(=O)N1C(=O)NS(=O)(=O)N1C[C@@H](NC(=O)[C@H](CC(=O)O)NC(=O)c2cc(=O)c(O)cn2O)CC1=O | < 0.06 | 0.25 (≈ 0.302 µM) | 2 ×10⁵ /M/s | 0.43 | > 150 |  |  |  |  |  |  |  | 
C[C@H]1[C@H](NC(=O)/C(=N\OC(C)(C)C(=O)O)c2csc(N)n2)C(=O)N1C(=O)NS(=O)(=O)N1C[C@@H](n2cc(-c3cc(=O)c(O)c[nH]3)nn2)CC1=O | < 0.06 | 4 (≈ 5.54 µM) | 2.3 ×10⁵ /M/s | 0.31 | 117 |  |  |  |  |  |  |  | 
C[C@H]1[C@H](NC(=O)/C(=N\OC(C)(C)C(=O)O)c2csc(N)n2)C(=O)N1C(=O)NS(=O)(=O)N1N=C(c2cc(=O)c(O)c[nH]2)NCC1=O | 2 (≈ 2.99 µM) | 16 (≈ 23.9 µM) | 3.8 ×10³ /M/s |  | 40 |  |  |  |  |  |  |  | 
C[C@H]1[C@H](NC(=O)/C(=N\OC(C)(C)C(=O)O)c2csc(N)n2)C(=O)N1S(=O)(=O)O [AZTREONAM] | 0.25 (≈ 0.574 µM) | 4 (≈ 9.19 µM) |  |  |  |  | 1020 (≈ 2350 µM) | > 512 | > 512 | > 512 |  |  | 
C[C@H]1[C@H](NC(=O)/C(=N\OC(C)(C)C(=O)O)c2csc(N)n2)C(=O)N1C(=O)NS(=O)(=O)N1C[C@@H](N(C)C(=O)NCc2cc(=O)c(O)cn2O)CC1=O | 0.25 (≈ 0.33 µM) | 0.5 (≈ 0.661 µM) | 3.1 ×10⁴ /M/s | 0.27 | 19 |  |  |  |  |  |  |  | 
C[C@H]1[C@H](NC(=O)/C(=N\OC(C)(C)C(=O)O)c2csc(N)n2)C(=O)N1C(=O)NS(=O)(=O)N1C[C@@H](NC(=O)N(C)Cc2cc(=O)c(O)cn2O)CC1=O | 0.25 (≈ 0.33 µM) | 1 (≈ 1.32 µM) | 1.9 ×10⁴ /M/s | 0.26 | > 150 |  |  |  |  |  |  |  | 
C[C@H]1[C@H](NC(=O)/C(=N\OC(C)(C)C(=O)O)c2csc(N)n2)C(=O)N1C(=O)NS(=O)(=O)N1C[C@@H](NC(=O)[C@@H]2CCCN2C(=O)c2cc(=O)c(O)c[nH]2)CC1=O | 0.5 (≈ 0.629 µM) | 8 (≈ 10.1 µM) | 1.4 ×10⁴ /M/s | 0.28 | 114 |  |  |  |  |  |  |  | 
C[C@H]1[C@H](NC(=O)/C(=N\OC(C)(C)C(=O)O)c2csc(N)n2)C(=O)N1C(=O)NS(=O)(=O)N1C[C@@H](NC(=O)[C@H](CC(=O)O)NC(=O)c2cc(=O)c(O)c[nH]2)CC1=O | 0.5 (≈ 0.615 µM) | 1 (≈ 1.23 µM) | 3.8 ×10⁴ /M/s | 0.14 | > 150 |  |  |  |  |  |  |  | 
C[C@H]1[C@H](NC(=O)/C(=N\OC(C)(C)C(=O)O)c2csc(N)n2)C(=O)N1C(=O)NS(=O)(=O)N1C[C@@H](NC(=O)[C@H](CN)NC(=O)c2cc(=O)c(O)c[nH]2)CC1=O | 0.5 (≈ 0.638 µM) | 4 (≈ 5.1 µM) | 9.4 ×10³ /M/s | 0.18 | 51 |  |  |  |  |  |  |  | 
C[C@H]1[C@H](NC(=O)/C(=N\OC(C)(C)C(=O)O)c2csc(N)n2)C(=O)N1C(=O)NS(=O)(=O)N1C[C@@H](NC(=O)NCc2cc(=O)c(O)c[nH]2)CC1=O | 1 (≈ 1.38 µM) | 16 (≈ 22 µM) | 2.4 ×10⁴ /M/s | 0.26 | 30 |  |  |  |  |  |  |  | 
C[C@H]1[C@H](NC(=O)/C(=N\OC(C)(C)C(=O)O)c2csc(N)n2)C(=O)N1C(=O)NS(=O)(=O)n1nc(-c2cc(=O)c(O)c[nH]2)n(C[C@@H](O)CO)c1=O | < 0.06 | 0.25 (≈ 0.343 µM) | 7.2 ×10⁴ /M/s | 0.04 | 138 | 9 | 0.25 (≈ 0.343 µM) | 16 (≈ 22 µM) | 8 (≈ 11 µM) | > 128 | 0.04 | 0.39 | 0.28
C[C@H]1[C@H](NC(=O)/C(=N\OC(C)(C)C(=O)O)c2csc(N)n2)C(=O)N1C(=O)NS(=O)(=O)N1C[C@H](NC(=O)c2cc(=O)c(O)c[nH]2)CC1=O | < 0.06 | 0.5 (≈ 0.717 µM) | 3.5 ×10⁵ /M/s | 0.25 | > 150 |  |  |  |  |  |  |  | 
C[C@H]1[C@H](NC(=O)/C(=N\OC(C)(C)C(=O)O)c2csc(N)n2)C(=O)N1C(=O)NS(=O)(=O)N1C[C@@H](NC(=O)[C@H](CCS(C)(=O)=O)NC(=O)c2cc(=O)c(O)c[nH]2)CC1=O | 0.25 (≈ 0.29 µM) | 4 (≈ 4.65 µM) | 1.8 ×10⁴ /M/s | 0.21 | > 150 |  |  |  |  |  |  |  | 
